Values joined by “and” are separate entries in the source; they are usually repeats but may differ in a detail not shown here. Equal values may be shown once.
Tests used:
BACE-1 = BACE-1 protein expression in SHSY cells (Western blot); type: cell-based, human; conditions: 24 hours, corrected for actin
[1] = Plasma pharmacokinetics after oral multi-dose anatabine polacrilex; type: in vivo, Sprague-Dawley rats; conditions: for Anatabine Concentration in rat plasma: dose 0.2 mg/kg, male, individual animals
Method: This study consisted of two groups of 8 animals each, 4 males and 4 females.
The vehicle was sterile phosphate buffered saline (PBS) (Amresco). […] Two formulations were prepared; one for each of the two treatment groups. The test compound was formulated for each treatment group just prior to the first dose administration and constantly stirred until dosing was completed (Table 37). Four aliquots of each dose level formulation were collected and stored at −80° C.
The animals were weighed prior to dosing and received three doses p.o. of test compound at a volume of 5 mL/kg. Blood was collected via the venus plexus (retro-orbital) into tubes containing (K2) EDTA. No more than 0.5 mL was collected per time point.
Sample preparation. Plasma samples were treated with three volumes of methanol containing internal standard at 1 μM (R,S)-Antabine-2,4,5,6-d4), incubated 10 min at 4° C., and centrifuged. The amount of the test agent in the supernatant was determined by LC/MS/MS.
Analysis. Samples were analyzed by LC/MS/MS using an Agilent 6410 mass spectrometer coupled with an Agilent 1200 high pressure liquid chromatography (HPLC) and a CTC PAL chilled autosampler, all controlled by MassHunter software (Agilent). After separation on a Hydrophilic interaction liquid chromatography (HILIC) HPLC column (Sepax) using an acetonitrile-ammonium acetate/acetic acid gradient system, peaks were analyzed by mass spectrometry (MS) using ESI ionization in multiple reaction monitoring (MRM) mode. MassHunter software was used to calculate the concentration of the test compounds in samples from the peak area using the appropriate calibration curves.
Descriptive statistics were calculated for all pharmacokinetic parameters. Elimination half-lives (t1/2) were calculated by linear regression of logarithmically transformed plasma concentration data for each period between doses and following the final dose.
Total areas under the plasma concentration curves (AUC) and under the first moment curves (AUMC) were calculated using linear trapezoidal summation across all concentration time points as well as for intervals between each dose administration and following the final dose. […] Mean absorption times (MAT) were calculated according to the following relation: […]

[2] = test system: T cells, antigen presentation; assay: Experimental Autoimmune Thyroiditis (Example 16A): lymphoid typing by flow cytometry; type: in vivo, mice; conditions: p=0.0143
Method: (§1) Thyroiditis was induced by injection of thyroglobulin emulsified in complete Freund's adjuvant […]. On days 0 and 7, female mice received subcutaneous injection of 100 μg thyroglobulin (2 injections of 50 μg each). Control mice drank water. […] Mice were sacrificed on day 21.
Cervical lymph nodes were removed for lymphoid typing by flow cytometry. Spleen and peritoneal macrophages were removed for ex vivo stimulation.

[3] = test system: antibodies to PPD and thyroglobulin; assay: Experimental Autoimmune Thyroiditis (Example 16A): serum antibodies to PPD and thyroglobulin; type: in vivo, mice
Method: as §1
Serum from control and anatabine-treated mice was examined to determine levels of antibodies to a foreign antigen (PPD).
Levels of antibodies to thyroglobulin were examined on days 7, 14, and 21 after immunization.

[4] = Anatabine 0.6 mg/kg, female rats, mean
[5] = Anatabine 0.6 mg/kg, male and female combined, mean
[6] = Anatabine 0.6 mg/kg, male rats, mean
[7] = Anatabine 6.0 mg/kg, female rats, mean
[8] = Anatabine 6.0 mg/kg, male and female combined, mean
[9] = Anatabine 6.0 mg/kg, male rats, mean
[10] = all data combined (overall), mean
[11] = both treatment groups combined, female rats, mean
[12] = females, 6.0 mg/kg BW group (3 x 2.0 mg/kg p.o.)

C1=CCC(c2cccnc2)NC1 (racemic) [Anatabine, 1,2,3,6-tetrahydro-[2,3′]bipyridinyl]
BACE-1 protein expression (BACE-1): reduced BACE expression | AUC0→∞ [1, 4]: 290 ng·h/mL | MAT0→4 (mean absorption time) [1, 4]: 0.53 h | t1/2, 0→4 (elimination half-life after first dose) [1, 4]: 2.06 h | t1/2, terminal [1, 4]: 1.80 h | MAT0→4 (mean absorption time) [1, 5]: 0.61 h | MTT0→4 (mean transit time) [1, 5]: 3.06 h | AUC0→∞ [1, 6]: 280 ng·h/mL | MAT0→4 (mean absorption time) [1, 6]: 0.71 h | t1/2, terminal [1, 6]: 1.78 h | Cp, max (1) ([1]; Anatabine 6.0 mg/kg, female rats, after dose 1, mean): 260 ng/mL | MAT0→4 (mean absorption time) [1, 7]: 0.30 h | t1/2, 0→4 (elimination half-life after first dose) [1, 7]: 1.82 h | MAT0→4 (mean absorption time) [1, 8]: 0.52 h | MTT0→4 (mean transit time) [1, 8]: 2.97 h | MAT0→4 (mean absorption time) [1, 9]: 0.73 h | t1/2, 0→4 (elimination half-life after first dose) [1, 9]: 1.76 h | concentration at 30 min ([1]; Sprague-Dawley, rat, plasma, oral, 2 mg/kg BW, dose group 2, female, 30 min, mean): 160 ng/mL | concentration at 60 min ([1]; Sprague-Dawley, rat, plasma, oral, 2 mg/kg BW, dose group 2, female, 60 min, mean): 129 ng/mL | concentration at 235 min ([1]; Sprague-Dawley, rat, plasma, oral, 2 mg/kg BW, dose group 2, female, 235 min, mean): 44 ng/mL | concentration at 270 min ([1]; Sprague-Dawley, rat, plasma, oral, 2 mg/kg BW, dose group 2, female, 270 min, mean): 316 ng/mL | concentration at 300 min ([1]; Sprague-Dawley, rat, plasma, oral, 2 mg/kg BW, dose group 2, female, 300 min, mean): 234 ng/mL | concentration at 475 min ([1]; Sprague-Dawley, rat, plasma, oral, 2 mg/kg BW, dose group 2, female, 475 min, mean): 192 ng/mL | concentration at 540 min ([1]; Sprague-Dawley, rat, plasma, oral, 2 mg/kg BW, dose group 2, female, 540 min, mean): 386 ng/mL | concentration at 600 min ([1]; Sprague-Dawley, rat, plasma, oral, 2 mg/kg BW, dose group 2, female, 600 min, mean): 325 ng/mL | concentration at 720 min ([1]; Sprague-Dawley, rat, plasma, oral, 2 mg/kg BW, dose group 2, female, 720 min, mean): 208 ng/mL | MAT0→4 (mean absorption time) [1, 10]: 0.56 h | MTT0→4 (mean transit time) [1, 10]: 3.01 h | t1/2, 0→4 (elimination half-life after first dose) [1, 10]: 1.93 h | MAT0→4 (mean absorption time) [1, 11]: 0.42 h | MTT0→4 (mean transit time) [1, 11]: 2.87 h | t1/2, 0→4 (elimination half-life after first dose) [1, 11]: 1.94 h | MAT0→4 (mean absorption time) ([1]; both treatment groups combined, male rats, mean): 0.72 h | Anatabine Concentration in rat plasma ([1]; 30 min): <LOQ | Anatabine Concentration in rat plasma ([1]; 235 min): <LOQ | Anatabine Concentration in rat plasma ([1]; 475 min): <LOQ | Anatabine Concentration in rat plasma ([1]; 600 min): <LOQ | Anatabine Concentration in rat plasma ([1]; 720 min): <LOQ | Avg. Conc. of Anatabine in plasma ([1]; dose group 0.2, combined male and female, 30 min, mean): 36 ng/mL | Avg. Conc. of Anatabine in plasma ([1]; dose group 0.2, combined male and female, 60 min, mean): 31 ng/mL | Avg. Conc. of Anatabine in plasma ([1]; dose group 0.2, combined male and female, 235 min, mean): 10 ng/mL | Avg. Conc. of Anatabine in plasma ([1]; dose group 0.2, combined male and female, 270 min, mean): 26 ng/mL | Avg. Conc. of Anatabine in plasma ([1]; dose group 0.2, combined male and female, 300 min, mean): 27 ng/mL | Avg. Conc. of Anatabine in plasma ([1]; dose group 0.2, combined male and female, 475 min, mean): 11 ng/mL | Avg. Conc. of Anatabine in plasma ([1]; dose group 0.2, combined male and female, 540 min, mean): 30 ng/mL | Avg. Conc. of Anatabine in plasma ([1]; dose group 0.2, combined male and female, 600 min, mean): 26 ng/mL | Avg. Conc. of Anatabine in plasma ([1]; dose group 0.2, combined male and female, 720 min, mean): 13 ng/mL | Avg. Conc. of Anatabine in plasma ([1]; dose group 0.2, female, 30 min, mean): 37 ng/mL | Avg. Conc. of Anatabine in plasma ([1]; dose group 0.2, female, 60 min, mean): 35 ng/mL | Avg. Conc. of Anatabine in plasma ([1]; dose group 0.2, female, 235 min, mean): 12 ng/mL | Avg. Conc. of Anatabine in plasma ([1]; dose group 0.2, female, 270 min, mean): 26 ng/mL | Avg. Conc. of Anatabine in plasma ([1]; dose group 0.2, female, 300 min, mean): 34 ng/mL | Avg. Conc. of Anatabine in plasma ([1]; dose group 0.2, female, 475 min, mean): 8 ng/mL | Avg. Conc. of Anatabine in plasma ([1]; dose group 0.2, female, 540 min, mean): 34 ng/mL | Avg. Conc. of Anatabine in plasma ([1]; dose group 0.2, female, 600 min, mean): 28 ng/mL | Avg. Conc. of Anatabine in plasma ([1]; dose group 0.2, female, 720 min, mean): 12 ng/mL | Avg. Conc. of Anatabine in plasma ([1]; dose group 0.2, male, 30 min, mean): 33 ng/mL | Avg. Conc. of Anatabine in plasma ([1]; dose group 0.2, male, 60 min, mean): 30 ng/mL | Avg. Conc. of Anatabine in plasma ([1]; dose group 0.2, male, 235 min, mean): 11 ng/mL | Avg. Conc. of Anatabine in plasma ([1]; dose group 0.2, male, 270 min, mean): 26 ng/mL | Avg. Conc. of Anatabine in plasma ([1]; dose group 0.2, male, 300 min, mean): 26 ng/mL | Avg. Conc. of Anatabine in plasma ([1]; dose group 0.2, male, 475 min, mean): 18 ng/mL | Avg. Conc. of Anatabine in plasma ([1]; dose group 0.2, male, 540 min, mean): 38 ng/mL | Avg. Conc. of Anatabine in plasma ([1]; dose group 0.2, male, 600 min, mean): 29 ng/mL | Avg. Conc. of Anatabine in plasma ([1]; dose group 0.2, male, 720 min, mean): 12 ng/mL | Avg. Conc. of Anatabine in plasma ([1]; dose group 2, combined male and female, 30 min, mean): 201 ng/mL | Avg. Conc. of Anatabine in plasma ([1]; dose group 2, combined male and female, 60 min, mean): 139 ng/mL | Avg. Conc. of Anatabine in plasma ([1]; dose group 2, combined male and female, 235 min, mean): 63 ng/mL | Avg. Conc. of Anatabine in plasma ([1]; dose group 2, combined male and female, 300 min, mean): 222 ng/mL | Avg. Conc. of Anatabine in plasma ([1]; dose group 2, combined male and female, 600 min, mean): 237 ng/mL | Avg. Conc. of Anatabine in plasma ([1]; dose group 2, combined male and female, 720 min, mean): 194 ng/mL | Avg. Conc. of Anatabine in plasma ([1]; dose group 2, male, 30 min, mean): 243 ng/mL | Avg. Conc. of Anatabine in plasma ([1]; dose group 2, male, 60 min, mean): 165 ng/mL | Avg. Conc. of Anatabine in plasma ([1]; dose group 2, male, 235 min, mean): 72 ng/mL | Avg. Conc. of Anatabine in plasma ([1]; dose group 2, male, 270 min, mean): 303 ng/mL | Avg. Conc. of Anatabine in plasma ([1]; dose group 2, male, 300 min, mean): 183 ng/mL | Avg. Conc. of Anatabine in plasma ([1]; dose group 2, male, 475 min, mean): 97 ng/mL | Avg. Conc. of Anatabine in plasma ([1]; dose group 2, male, 540 min, mean): 226 ng/mL | Avg. Conc. of Anatabine in plasma ([1]; dose group 2, male, 600 min, mean): 151 ng/mL | Avg. Conc. of Anatabine in plasma ([1]; dose group 2, male, 720 min, mean): 203 ng/mL | Cp, max, final value [1, 12]: 374.8 ± 122.9 ng/mL | Cp, max, initial value [1, 12]: 259.8 ± 35.4 ng/mL | Cp, min(2) ([1]; females, 6.0 mg/kg BW group, 6 mg/kg): 180 ± 31 ng/mL and 180.0 ± 30.7 ng/mL | activated T cells vs control ([2]; cervical lymph nodes): fewer activated T cells | regulatory T cells vs control ([2]; cervical lymph nodes): more regulatory T cells | regulatory T cells vs control ([2]; cervical lymph nodes, listed as anatabine): fewer T regulatory cells than control mice | ability to present antigens vs control [2]: a lower ability to present antigens | antibodies to PPD vs control ([3]; 0.05 mg/ml in drinking water): no significant difference | antibodies to thyroglobulin vs control ([3]; day 7): no significant difference | antibodies to thyroglobulin vs control ([3]; day 14, p=0.086): tended to have lower thyroglobulin antibodies | antibodies to thyroglobulin vs control ([3]; day 21): no significant difference

— patent US20160030407A1, “Method of Treating Inflammatory Lung Disease” (priority 2010, published 2016)
